Reference: US10966969B2, “Therapeutic agent for liver diseases” (APTABIO THERAPEUTICS INC., priority 2017, dated 2021)

Experiments:
[1] = tested on: fatty liver model animal induced by MCD (methionine/choline deficient) diet; assay: Test using fatty liver model animal induced by MCD (methionine/choline deficient) diet; assay type: in vivo, Sprague Dawley (SD) rats; details: MCD diet rats, daily single dose of 60 mg/kg, compared to the vehicle group
Experimental: As subject animals, 6-week-old male Sprague Dawley (SD) rats were purchased. All rats were kept under standard conditions. When the rats became 12 weeks old after being bred for about 6 weeks, test substances were administered to the rats. Test groups were set based on ALT level in blood collected at 5 weeks. For 5 weeks after the rats became 12 weeks old, test substances were separately administered to a vehicle administration group and a 3-phenyl-4-n-propyl-1-(pyridin-2-yl)-1H-pyrazol-5-ol hydrochloride administration group. A normal control group was used as a negative control. Blood was collected one day before the start of the experiment (from the jugular vein), and blood samples were collected on the 3 weeks, 5 weeks, 7 weeks, 9 weeks and on the day of the autopsy (24 hours after the fasting, total six times). In addition, plasma of each blood sample collected on the 5 weeks, 7 weeks, 9 weeks and on the day of the autopsy were analyzed. After completion of the test, the animals were anesthetized, liver tissues were taken out from respective animals and blood for inspection was collected. The liver tissues were weighed and imaged. The liver tissues were immobilized in 10% buffered neutral formalin. […] In addition to H&E staining, Oil red-O staining was conducted in order to observe lipids induced by formation of fatty liver, levels of produced lipids were measured and an effect of drug administration on reduction of lipids was predicted. […] The serum of the upper layer was taken and the level of alanine transaminase (ALT) was measured using an automatic blood biochemical analyzer (AU480, Beckman 30-18 Coulter, USA) and the results were analyzed. A ratio of liver weight to body weight was measured and the amount of triglyceride in liver tissues was measured to expect effects of drug administration on reduction of relative liver weight and triglyceride. […] Results are analyzed.

[2] = tested on: fatty liver model animal induced by high fat diet; assay: Test using fatty liver model animal induced by high fat diet; assay type: in vivo; details: high fat diet rats, daily single dose of 60 mg/kg, compared to the vehicle group and the obeticholic acid group
Experimental: As subject animals, 6-week-old rats were purchased. All rats were kept under standard conditions. When the rats became 12 weeks old after being bred for about 6 weeks, test substances were administered to the rats. Test groups were set based on ALT level in blood collected at 5 weeks. For 5 weeks after the rats reached 12 weeks old, test substances were separately administered to a vehicle administration group, an obeticholic acid administration group as a positive control group, and a 3-phenyl-4-normalpropyl-1-(pyridin-2-yl)-1H-pyrazol-5-ol hydrochloride administration group. Blood was collected one day before the start of the experiment (from jugular vein), and blood samples were collected on the 5 weeks, 8 weeks and on the day of the autopsy (24 hours after the fasting, total 4 times). In addition, plasma of each blood sample collected on the 5th week, 8th week and the day of the autopsy were analyzed. After completion of the test, the animals were anesthetized, liver tissues were taken out from respective animals and blood for inspection was collected. The liver tissues were weighed and imaged. The liver tissues were immobilized in 10% buffered neutral formalin. The immobilized tissues were cut to a predetermined thickness, subjected to a general tissue treatment process, embedded in paraffin and produced into tissue sections with a size of 4 to 5 μm, and the tissue sections were subjected to Hematoxylin & Eosin (H&E stain) as a general staining method and were histopatho-logically observed. In addition to H&E staining, Oil red-o staining was conducted in order to observe lipids induced by formation of fatty liver, levels of produced lipids were measured and an effect of drug administration on reduction of lipids was predicted. The liver tissues were stained with an Oil red o working solution, to evaluate levels of produced lipids. Blood was collected and centrifuged at 3000 rpm at 4° C. for 10 min. The serum of the upper layer was taken and the levels of alkaline phosphate (ALP), aspartate transminase (AST) and alanine transaminase (ALT) were measured using an automatic blood biochemical analyzer (AU480, Beckman 30-18 Coulter, USA) and the results were analyzed. A ratio of liver weight to body weight was measured and the amount of triglyceride in liver tissues was measured to expect effects of drug administration on reduction of relative liver weight and triglyceride. The liver tissues were ground with a homogenizer, chloroform and methanol (2:1) were added thereto, the resulting mixture was centrifuged at 3,000 rpm and at 4° C. for 10 minutes and the organic solvent layer containing lipids was separated. The organic solvent in the separated lipid layer was removed in the dryer at 50° C. for 12 hours. […]

[3] = tested on: fatty liver model animal induced by diabetic db/db mice; assay: Test using fatty liver model animal induced by diabetic db/db mice; assay type: in vivo, diabetic db/db mice (C57BLKS/J-leprdb/leprdb); details: daily single dose of 60 mg/kg
Experimental: As subject animals, 6-week-old male diabetic db/db mice (C57BLKS/J-leprdb/leprdb) were purchased from Jackson Laboratory (Bar Harbor, Me., USA). The mice were kept under standard conditions. When the mice became 8 weeks old after being bred for about 2 weeks, test substances were administered to the mice. For 12 weeks after the mice became 8 weeks old, test substances were separately administered to a vehicle administration group and a 3-phenyl-4-normalpropyl-1-(pyridin-2-yl)-1H-pyrazol-5-ol hydrochloride administration group. A normal control group was used as a negative control. After completion of the test, the animals were anesthetized, liver tissues were taken out from respective animals and blood for inspection was collected. The liver tissues were weighed and imaged. The liver tissues were immobilized in 10% buffered neutral formalin. The immobilized tissues were cut to a predetermined thickness, subjected to a general tissue treatment process, embedded in paraffin and produced into tissue sections with a size of 4 to 5 μm, and the tissue sections were subjected to Hematoxylin & Eosin (H&E stain) as a general staining method and were histopatho-logically observed. In addition to H&E staining, Oil red-O staining was conducted in order to observe lipids induced by formation of fatty liver, levels of produced lipids were measured and an effect of drug administration on reduction of lipids was predicted. The liver tissues were stained with an Oil red 0 working solution, to evaluate levels of produced lipids. Blood was collected and centrifuged at 3000 rpm at 4° C. for 10 min. The serum of the upper layer was taken and the levels of triglyceride (TG) and LDL-cholesterol (LDL-C) were measured using an automatic blood biochemical analyzer (AU480, Beckman 30-18 Coulter, USA) and the results were analyzed. A ratio of liver weight to body weight was measured and the amount of triglyceride in liver tissues was measured to expect effects of drug administration on reduction of relative liver weight and triglyceride. The liver tissues were ground with a homogenizer, chloroform and methanol (2:1) were added thereto, the resulting mixture was centrifuged at 3,000 rpm and at 4° C. for 10 minutes and the organic solvent layer containing lipids was separated. The organic solvent in the separated lipid layer was removed in the dryer at 50° C. for 12 hours. The lipid-only tubes were immersed in 100% EtOH, and then suspended in a lipid-free tube and then assayed with a kit reagent for measuring triglyceride (AM157S-K, Asan, Korea).

[4] = compared to the vehicle group, FIG. 6C

SMILES: CCCc1c(-c2ccccc2)nn(-c2ccccn2)c1O.Cl [compound 1, 3-phenyl-4-n-propyl-1-(pyridin-2-yl)-1H-pyrazol-5-ol hydrochloride]
- level of ALT in the blood ([1]; FIG. 1): significantly reduced
- inflammation in liver tissues (staining of α-SMA, IL-1β and TNF-α) ([1]; FIG. 2): considerably reduced
- liver tissue damage and hepatic fibrosis (TGF-β, H&E staining, Oil red O staining) ([1]; FIG. 3): reduced
- relative liver weight ([2]; FIG. 4A): significantly reduced
- level of ALP in blood ([2]; FIG. 4B-4D): considerably decreased
- level of ALT in blood ([2]; FIG. 4B-4D): considerably decreased
- level of AST in blood ([2]; FIG. 4B-4D): considerably decreased
- level of LDL in blood ([3]; FIG. 6A and 6B): decreasing levels
- level of LDL in liver tissues ([3]; FIG. 6A and 6B): decreasing levels
- level of TG in blood ([3]; FIG. 6A and 6B): decreasing levels
- level of TG in liver tissues ([3]; FIG. 6A and 6B): decreasing levels
- liver tissue damage and hepatic fibrosis (TGF-β and Type IV collagen staining in liver tissues) ([3]; compared to the vehicle group, FIG. 5): significantly reduced
- mRNA expression of MCP-1 in liver tissues [3, 4]: considerably reduced
- mRNA expression of PAI-1 in liver tissues [3, 4]: considerably reduced
- mRNA expression of TGF-β in liver tissues [3, 4]: considerably reduced
- mRNA expression of collagen I in liver tissues [3, 4]: considerably reduced
- mRNA expression of collagen IV in liver tissues [3, 4]: considerably reduced
